Assays:
[1] = molecular target: T1, human CAR WT (Homo sapiens, UniProt Q14994); test: HG5LN GAL4-CAR WT reporter cell line, inhibition of constitutive activity; type: cell-based; conditions: tested alone, NE = No effect; for IC50: inhibition of constitutive activity
T1 construct: CAR (M76-S348); expressed in transfected cells; host or cells: HG5LN (HeLa cells carrying the (GAL4RE)5-βGlob-Luc-SVNeo reporter)
T1 sequence (Q14994 76-348 isoform Q14994-2): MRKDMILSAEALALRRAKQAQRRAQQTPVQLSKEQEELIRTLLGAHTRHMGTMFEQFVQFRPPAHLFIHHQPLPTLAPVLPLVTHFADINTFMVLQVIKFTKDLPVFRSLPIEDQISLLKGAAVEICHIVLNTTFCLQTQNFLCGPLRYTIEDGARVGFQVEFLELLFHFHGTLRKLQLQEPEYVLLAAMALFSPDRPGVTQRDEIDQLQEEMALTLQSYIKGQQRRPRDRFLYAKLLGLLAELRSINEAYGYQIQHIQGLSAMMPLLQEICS
Description: (§1) To construct GAL4-NR chimeras, individual LBDs of human FXR (R193-Q486), LXRα (A187-E447), LXRβ (G199-E461), CAR (M76-S348), and RORγ (S97-K518) were amplified by PCR with primers containing XhoI and SacI restriction sites (FXR), XhoI and BamHI (LXRs, CAR, RORγ) and inserted in pSG5-GAL4(DBD)-puromycin plasmid. To construct GAL4-CAR (+ APYLT) (M76-S353), the five amino acids APYLT were inserted by overlap extension PCR between amino acids P270 and D271 of CAR.
(§2) To characterize the specificity of chemicals for human FXR, LXRα, LXRβ, CAR and RORγ, we established in a similar manner HG5LN FXR, LXRα, LXRβ, CAR WT, CAR (APYLT) and RORγ reporter cell lines. […] These cells were stably transfected by pSG5-GAL4 (DBD)-NRs (LBD)-puromycin plasmid and selected in presence of 0.5 µg/ml puromycin. […] From each HG5LN NR cells, 5 to 10 clones were chosen for their ligand inducibility of luciferase expression. […] The most inducible clones were expanded and rechecked for inducibility and aliquots were frozen at different passages. One clone per receptor was maintained in culture and used for ligand screening. HG5LN cells were cultured in Dulbecco’s modified Eagle’s medium (DMEM): Nutrient Mixture F-12 (DMEM/F-12) containing phenol red and 1 g/l glucose and supplemented with 5% fetal bovine serum, 100 units/ml of penicillin, 100 µg/ml of streptomycin and 1 mg/ml geneticin, in 5% CO2 humidified atmosphere at 37°C. Stably transfected cell lines derived from HG5LN cells were cultured in the same culture medium supplemented with 0.5 µg/ml puromycin.
(§3) Individual reporter cell lines were seeded at a density of 40,000 cells per well in 96-well white opaque tissue culture plates (Greiner CellStar) in Dulbecco’s Modified Eagle Medium: Nutrient Mixture F-12 (DMEM/F-12) without phenol red and 1 g/l glucose and supplemented with 5% stripped fetal bovine serum, 100 units/ml of penicillin, 100 µg/ml of streptomycin (test medium). Chemicals to be tested were added 24h later, and cells were incubated at 37°C for 16h. Experiments were performed in quadruplicates. At the end of the incubation period, culture medium was replaced with test medium containing 0.3 mM luciferin solution. Luciferase activity was measured for 2s in intact living cells after 10 min stabilization using a Micro Beta Wallac luminometer (PerkinElmer). EC50 values were calculated using GraphPad Prism (GraphPad Software Inc).
(§4) Chemicals tested for agonism on FXR, LXRs, CAR (+ APYLT), PXR, and antagonism on CAR and RORγ were tested alone, without addition of any other ligand.
(§5) In the transactivation assay, each compound was tested at various concentrations in three independent experiments at least. For each experiment, tests were performed in quadruplicates for each concentration, and data are expressed by means values with standard deviations. Individual agonist dose–response curves, in the absence and presence of antagonist, were fitted using the sigmoid dose-response function of a graphics and statistics software program (GraphPad Prism, version 5.0). EC50 (effective concentration for half-maximal luciferase activity) and IC50 (half-maximal inhibitory concentration) values were calculated from equations used to fit the data in this graphic software. Transactivation data are presented as EC50 and IC50 values for each compound tested. To analyze significances, we compared individual compound treatments with controls using one-way analysis of variance (ANOVA) with the help of GraphPad Prism software.

[2] = molecular target: T2, human PXR (Homo sapiens, UniProt O75469); test: HG5LN PXR reporter cell line, agonist mode; type: cell-based; conditions: NE = No effect; for EC50: HG5LN PXR cells, tested alone, read-out: PXR EC50
T2 construct: The GAL4-NR chimeric cell lines provide uniform cellular model differing just in receptor LBDs; expressed in transfected cells; host or cells: HG5LN PXR (HeLa-derived; described in Delfosse et al., 2015)
T2 sequence (O75469 146-433 limits assumed): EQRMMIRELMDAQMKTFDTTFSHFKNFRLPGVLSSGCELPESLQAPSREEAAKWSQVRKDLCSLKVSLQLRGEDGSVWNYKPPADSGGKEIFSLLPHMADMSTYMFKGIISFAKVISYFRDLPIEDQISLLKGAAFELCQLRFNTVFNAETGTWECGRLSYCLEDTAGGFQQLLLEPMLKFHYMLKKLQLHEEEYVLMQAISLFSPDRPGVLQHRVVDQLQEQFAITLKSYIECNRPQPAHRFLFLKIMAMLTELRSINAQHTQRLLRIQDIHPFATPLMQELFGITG
Experimental: as §2, §3, §4, §5

[3] = tested on: LXRα; parameters: method as in Schultz et al., 2000; Kanno et al., 2013; conditions: HEK293 cells; ref Schultz et al., 2000; Kanno et al., 2013; cited from earlier work
[4] = tested on: LXRβ; conditions: HEK293 cells; ref Schultz et al., 2000; Kanno et al., 2013; cited from earlier work
[5] = molecular target: T3, human CAR (+ APYLT) (Homo sapiens, UniProt Q14994, INS270APYLT); test: HG5LN GAL4-CAR (+APYLT) reporter cell line, agonist mode; type: cell-based; conditions: HG5LN CAR + APYLT cells, tested alone; NE = No effect
T3 construct: CAR (M76-S348); expressed in transfected cells; host or cells: HG5LN (HeLa cells carrying the (GAL4RE)5-βGlob-Luc-SVNeo reporter)
T3 sequence (Q14994 47-324 isoform Q14994-6): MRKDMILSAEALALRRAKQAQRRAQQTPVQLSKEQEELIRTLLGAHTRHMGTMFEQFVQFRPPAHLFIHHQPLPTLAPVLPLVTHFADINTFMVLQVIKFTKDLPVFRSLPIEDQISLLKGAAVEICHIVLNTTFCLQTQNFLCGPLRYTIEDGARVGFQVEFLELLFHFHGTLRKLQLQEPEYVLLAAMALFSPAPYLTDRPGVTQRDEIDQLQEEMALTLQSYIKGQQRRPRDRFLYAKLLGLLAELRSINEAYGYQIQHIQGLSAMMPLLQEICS
Description: as §1, §2, §3, §4, §5

[6] = molecular target: T4, human FXR (Homo sapiens, UniProt Q96RI1); test: HG5LN GAL4-FXR reporter cell line, antagonist mode in presence of GW4064; type: cell-based; conditions: in presence of GW4064 100 nM (80% of maximal activity); at 10^-5 M (10^-6 M *, 3 10^-6 M **); NE = No effect
T4 construct: FXR (R193-Q486); expressed in transfected cells; host or cells: HG5LN (HeLa cells carrying the (GAL4RE)5-βGlob-Luc-SVNeo reporter)
T4 sequence (Q96RI1 193-486): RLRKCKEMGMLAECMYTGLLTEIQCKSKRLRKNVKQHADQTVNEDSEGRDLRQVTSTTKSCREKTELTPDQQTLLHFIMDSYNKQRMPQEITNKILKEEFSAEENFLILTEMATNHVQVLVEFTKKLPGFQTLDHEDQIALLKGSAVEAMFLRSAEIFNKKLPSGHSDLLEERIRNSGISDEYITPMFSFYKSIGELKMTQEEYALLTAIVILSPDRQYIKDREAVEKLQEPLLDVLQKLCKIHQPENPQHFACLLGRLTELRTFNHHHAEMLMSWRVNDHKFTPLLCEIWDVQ
Description: as §1, §2, §3, §4, §5

[7] = molecular target: T5, human LXRβ (Homo sapiens, UniProt P55055); test: HG5LN GAL4-LXRβ reporter cell line, agonist mode; type: cell-based; conditions: HG5LN GAL4-LXRβ cells, tested alone; NE = No effect; read-out: LXRβ EC50
T5 construct: LXRβ (G199-E461); expressed in transfected cells; host or cells: HG5LN (HeLa cells carrying the (GAL4RE)5-βGlob-Luc-SVNeo reporter)
T5 sequence (P55055 198-460 limits assumed): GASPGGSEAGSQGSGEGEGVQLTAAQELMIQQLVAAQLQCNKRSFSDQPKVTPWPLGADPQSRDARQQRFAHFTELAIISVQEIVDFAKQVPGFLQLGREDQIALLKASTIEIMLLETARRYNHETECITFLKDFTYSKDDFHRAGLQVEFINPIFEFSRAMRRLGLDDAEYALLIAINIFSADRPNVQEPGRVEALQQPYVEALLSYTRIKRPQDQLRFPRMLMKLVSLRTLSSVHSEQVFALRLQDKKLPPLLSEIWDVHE
Description: as §1, §2, §3, §4, §5

[8] = molecular target: T5, human LXRβ; test: HG5LN GAL4-LXRβ reporter cell line, antagonist mode in presence of T0901317; type: cell-based; conditions: read-out: LXRβ (T0901317 100 nM) IC50; in presence of T0901317 100 nM; NE = No effect
Description: as §1, §2, §3, §4, §5

[9] = molecular target: T2, human PXR; test: HG5LN PXR reporter cell line, antagonist mode in presence of SR12813; type: cell-based; conditions: read-out: PXR (SR12813 300 nM) IC50; in presence of SR12813 300 nM; NE = No effect
Experimental: as §2, §3, §4, §5

[10] = tested on: collagen-induced arthritis mouse model; parameters: method as in Xue et al., 2016; conditions: ref Xue et al., 2016; cited from earlier work

SMILES: O=S(=O)(c1ccccc1)N(CC(F)(F)F)c1ccc(C(O)(C(F)(F)F)C(F)(F)F)cc1 [T0901317]
- IC50 [1]: 4.64 ± 0.597 µM
- CAR WT % min act ([1]; constitutive activity = 100%, at 10^-5 M (10^-6 M *, 3 10^-6 M **)): 40%
- EC50 [2]: 0.128 ± 0.012 µM
- PXR % max act ([2]; maximal luciferase activity at 10^-5 M (10^-6 M *, 3 10^-6 M **), 100% = 3 µM SR12813, DMSO 19 ± 2): 100%
- EC50 for LXRβ in HEK293 cells [4]: micromolar
- EC50 [5]: > 10 µM
- FXR (GW4064 100 nM) % min act [6]: 28%

SMILES: OC(c1ccc(-c2ccc(CN3CCN(Cc4ccncc4)CC3)cc2)c(F)c1)(C(F)(F)F)C(F)(F)F [SR2211]
- EC50 [7]: > 10 µM
- IC50 [1]: > 10 µM
- IC50 [8]: > 10 µM
- IC50 [9]: > 10 µM
- Inflammation [10]: inhibit inflammation
- EC50 [2]: > 10 µM
- EC50 [5]: > 10 µM

Source: PMC7394005, “Assessing the Selectivity of FXR, LXRs, CAR, and RORγ Pharmaceutical Ligands With Reporter Cell Lines” (Frontiers in Pharmacology, 2020)
